{"source": "patent US11771692B2", "about": "“N-hydroxyethyl didehydroazapodophyllotoxins as GBP1 inhibitors and methods of overcoming treatment resistance in cancer” (The Board of Trustees of the Leland Stanford Junior …, priority 2018, dated 2023)", "key": {"GBP1": {"tested_on": "GBP1", "assay": "cell-based reporter assay, OVCAR-8 stably transfected with GBP-1-luciferase", "settings": "OVCAR-8 GBP-1-luciferase", "source_text": "Exemplary compounds (1)-(17) and previously identified compound SU093 (Andreoli, M., Persico, M.; Kumar, A.; Orteca, N.; Kumar, V.; Pepe, A.; Mahalingam, S.; Alegria, A. E.; Petrella, L.; Sevciunaite, L.; Camperchioli, A.; Mariani, M.; Di Dato, A.; Novellino, E.; Scambia, G., Malhotra, S. V.; Ferlini, C.; Fattorusso, C., Identification of the First Inhibitor of the GBP1:PIM1 Interaction. Implications for the Development of a New Class of Anticancer Agents against Paclitaxel Resistant Cancer Cells. Journal of Medicinal Chemistry 2014, 57 (19), 7916-7932) were tested for GBP1 inhibition using a cell-based reporter assay in ovarian cancer cell line OVCAR-8 stably transfected with GBP-1-luciferase. Tables 1 and 2 below outlines the percentage of GBP1 expression in OVCAR-8 cells for each of the 17 compounds tested."}, "HCT116": {"tested_on": "HCT116", "assay": "MTT cytotoxicity assay, HCT116", "assay_type": "cell-based", "settings": "Homo sapiens, HCT-116, Colorectal", "source_text": "It was observed that SU093 was highly cytotoxic for all cell lines tested with IC50 values in the nanomolar range."}, "OVCAR8-PRes cells": {"tested_on": "OVCAR8-PRes cells", "assay": "Growth inhibition of paclitaxel-resistant OVCAR8-PRes cells", "assay_type": "cell-based", "source_text": "The cytotoxic effect of SU093 and paclitaxel combination treatment was also studied (FIG. 5, panel E)."}, "SCC-90 cells": {"tested_on": "SCC-90 cells", "assay": "Cell cycle analysis of SCC-90 cells, SU093/radiation combination", "assay_type": "cell-based", "settings": "SCC-90, SU093 50 nM and/or 10 Gy, 24 h", "source_text": "The potential for GBP1 inhibition and radiosensitzation in head and neck cancer cells was also investigated."}, "[1]": {"assay": "Maximum tolerable dose study, 14 days IP", "assay_type": "in vivo, mice", "protocol": "FIG. 7, panel A illustrates in vivo PK studies, C57BL/6 mice. Drug concentration in plasma was quantified at different time points using LCMS after a single IP injection of SU093. FIG. 7, panel B illustrates the drug concentration in harvested ovaries and liver of C57BL/6 mice after 14 days of administration with SU093 (100 mg/kg) by daily IP injection.\nTo determine the maximum tolerable dose of an exemplary GBP1 inhibitor, SU093 was administered to C57BL6 female mice (n=10) intraperitoneally at 100 mg/kg for 14 days. […] At the end of the 14th day, mice were sacrificed and organs were harvested."}}, "note": "Entries after “also recorded” stand apart in the source; their conditions may differ. Where two headings read alike, the source gives them in different places."}
{"smiles": "COc1ccc2c(c1)N(CCO)C1=C(C(=O)OC1)C2c1ccccc1", "note": "(stereo not drawn) [SU093]", "values": [{"measurement": "% GBP1 expression OVCAR-8 @5 nM", "setting": "GBP1; 5 nM", "value": 60.3, "unit": "%"}, {"measurement": "% GBP1 expression OVCAR-8 @10 nM", "setting": "GBP1; 10 nM", "value": 51.0, "unit": "%"}, {"measurement": "IC50", "setting": "HCT116", "value": 1.24, "unit": "nM"}, {"measurement": "inhibition at 0.015 µM", "setting": "OVCAR8-PRes cells; 15 nM SU093, read-out: inhibition in the cell growth", "value": 50, "unit": "%"}, {"measurement": "inhibition at 0.015 µM", "setting": "OVCAR8-PRes cells; SU093 (15 nM) and paclitaxel (2 μM), read-out: growth inhibition, combination treatment", "value": 80, "unit": "%"}, {"measurement": "cell cycle, SU093/radiation combination", "setting": "SCC-90 cells", "value": "G2/M phase arrest followed by cell death; also recorded: increase in G2/M phase arrest, followed by apoptosis"}, {"measurement": "CHEM-22 panel analysis", "setting": "[1]; 100 mg/kg for 14 days", "value": "only acute liver toxicity"}, {"measurement": "weight loss or sign of toxicity", "setting": "[1]; C57BL6 female mice, 100 mg/kg IP, 14 days", "value": "no significant weight loss or sign of toxicity"}, {"measurement": "concentration at 14 days", "setting": "[1]; female, C57BL/6, mouse, ovaries, intraperitoneal, 100 mg/kg daily IP, after 14 days, LCMS, read-out: concentration in the target organ (ovaries)", "value": 3730, "unit": "ng/mL"}]}
